Our source for the EC50 values is patent US9850227B2 (YUHAN CORPORATION, priority 2011, dated 2017).

Where a name gives a salt, the structure may show the parent alone.

The test has as its target T1, human 5-HT4(a) (Homo sapiens, UniProt Q13639).
T1 construct: host or cells: GeneBIAzer HTR4-CRE-bla CHO-K1 cells
The experiment in a line: Evaluation of agonistic activity in CHO-K1 cells expressing human 5-HT4(a) (GeneBIAzer HTR4-CRE-bla CHO-K1 cells, beta-lactamase fluorescence ratio, EC50 from 8 concentrations). Type of test: cell-based. How it is done:
Evaluation of Agonistic Activity in CHO-K1 Cells Expressing Human 5-HT4(a)
As CHO-K1 cells stably expressing human 5-HT4(a), we used the GeneBIAzer HTR4-CRE-bla CHO-K1 cells (Invitrogen Corp.). The cells were cultured, under the condition of 37° C. and 5% CO2, in a DMEM supplemented with 10% fetal bovine serum (FBS), 25 mM HEPES (pH7.4), 600 μg/ml hygromycin B, 0.1 mM non-essential amino acids, 100 unit/ml penicillin and 100 μg/ml streptomycin. Subcultures were performed three times per one week, each being at less than 80% confluence. At the previous day before treating test compounds, the cells were collected using 0.5% trypsin/EDTA and then diluted with a DMEM supplemented with 1% FBS, 25 mM HEPES, and 0.1 mM non-essential amino acids into 3.125×10^5 cells/ml. 32 μl of the diluted cells were added into 384-well plate (10^4 cells per well) and then incubated overnight. After the overnight culture, 8 μl of the medium having 1% of DMSO was added into the cell-free control well and the non-stimulating control well, respectively. 8 μl of the respective test compound dilutions (which had been prepared by diluting by 100-times with the medium as mentioned in the above) having 1% of DMSO were added to the respective remaining wells. After being cultured in the incubator for 5 hours, the wells of the 384-plate were treated with the substrate solution (8 μl per well) prepared according to the vendor's instruction (i.e., Invitrogen's instruction), and then incubated in the dark room for additional two hours. Agonistic activities on 5-HT4 receptor were evaluated, on the basis of fluorescence values of the cleavage-products by beta-lactamase. After exciting to 410 nm of wavelength using a fluorescence detector (Genios Pro), we measured the fluorescence values at two emission wavelengths (first wavelength: 465 nm, second wavelength: 535 nm). Data were analyzed on the basis of the ratio of fluorescence intensities of each well at the respective wavelengths. Each EC50 value was calculated by non-linear regression analysis using the “GraphPad Prism” program, based on the activities according to 8-different concentrations of the test compounds.

T1 sequence (Q13639 1-387 isoform Q13639-2): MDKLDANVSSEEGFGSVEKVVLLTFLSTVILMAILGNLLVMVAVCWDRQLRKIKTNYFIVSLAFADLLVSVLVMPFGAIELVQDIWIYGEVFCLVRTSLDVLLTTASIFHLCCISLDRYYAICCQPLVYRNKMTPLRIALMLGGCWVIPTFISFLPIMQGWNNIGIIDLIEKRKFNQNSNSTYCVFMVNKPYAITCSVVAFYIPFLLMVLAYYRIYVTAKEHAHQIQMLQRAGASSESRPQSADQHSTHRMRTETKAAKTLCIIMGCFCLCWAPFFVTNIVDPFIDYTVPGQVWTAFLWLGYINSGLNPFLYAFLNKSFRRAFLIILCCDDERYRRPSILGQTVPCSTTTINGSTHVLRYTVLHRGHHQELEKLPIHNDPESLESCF

For the molecule `CCCc1cc(N2CCC[C@@H](NC(=O)CO)C2)nc(Nc2cc(N)cc(C(F)(F)F)c2)n1` [Example 247, (R)—N-(1-{2-[3-amino-5-(trifluoromethyl)phenylamino]-6-propylpyrimidin-4-yl}piperidin-3-yl)-2-hydroxyacetamide], the EC50 turned out to be 0.023 nM.

`CCCc1cc(N2CCC[C@@H](N)C2)nc(Nc2ccc(N)c([N+](=O)[O-])c2)n1` [Example 266, (R)—N^1-[4-(3-aminopiperidin-1-yl)-6-propylpyrimidin-2-yl]-3-nitrobenzene-1,4-diamine]: the EC50 was 0.0096 nM.

On to `CCCCc1cc(N2CCC[C@@H](NC(C)=O)C2)nc(Nc2ccc(F)c(C#N)c2)n1` [Example 240, (R)—N-{1-[6-butyl-2-(3-cyano-4-fluorophenylamino)pyrimidin-4-yl]piperidin-3-yl}acetamide], for which the EC50 turned out to be 0.012 nM.

In the case of `CCCc1cc(N2CCC[C@@H](NCC(C)C)C2)nc(Nc2ccc(C)c(C#N)c2)n1` [Example 209, (R)-5-{4-[3-(isobutylamino)piperidin-1-yl]-6-propylpyrimidin-2-ylamino}-2-methylbenzonitrile], the EC50 was 0.015 nM.

`CCCCc1cc(N2CCC[C@@H](N)C2)nc(Nc2ccc(C)c(F)c2)n1` [Example 344, (R)-4-(3-aminopiperidin-1-yl)-6-butyl-N-(3-fluoro-4-methylphenyl)pyrimidin-2-amine]: the EC50 stood at 0.448 nM.

Consider `CCCc1cc(N2CCC[C@@H](NC(C)=O)C2)nc(Nc2cc(N)cc(C#N)c2)n1` [Example 274, (R)—N-{1-[2-(3-amino-5-cyanophenylamino)-6-propylpyrimidin-4-yl]piperidin-3-yl}acetamide], for which the EC50 came to 0.006 nM.

Regarding `CCCCc1cc(N2CCC[C@@H](NC(C)=O)C2)nc(Nc2ccc(N)c([N+](=O)[O-])c2)n1` [Example 232, (R)—N-{1-[2-(4-amino-3-nitrophenylamino)-6-butylpyrimidin-4-yl]piperidin-3-yl}acetamide], the EC50 was 0.0037 nM.

Take `CCCCc1cc(N2CCC[C@@H](NC)C2)nc(Nc2ccc(N)c(C#N)c2)n1` [Example 316, (R)-2-amino-5-({4-butyl-6-[3-(methylamino)piperidin-1-yl]pyrimidin-2-yl}amino)benzonitrile]: the EC50 is 0.0067 nM.

In the case of `CCCCc1cc(N2CCC[C@@H](NCC)C2)nc(Nc2ccc(C)c(C#N)c2)n1` [Example 299, (R)-5-({4-butyl-6-[3-(ethylamino)piperidin-1-yl]pyrimidin-2-yl}amino)-2-methylbenzonitrile], the EC50 was found to be 0.004 nM.

Consider `CCCc1cc(N2CCC[C@@H](N(CC)CC)C2)nc(Nc2ccc(C)c(C#N)c2)n1` [Example 269, (R)-5-[4-(3-diethylaminopiperidin-1-yl)-6-propylpyrimidin-2-ylamino]-2-methylbenzonitrile], for which the half-maximal effective concentration (EC50) is 0.016 nM.

`CCCc1cc(N2CCC[C@@H](N)C2)nc(Nc2ccc(C)c(C#N)c2)n1` [Example 153, (R)-5-[4-(3-aminopiperidin-1-yl)-6-propylpyrimidin-2-ylamino]-2-methylbenzonitrile]: the EC50 turned out to be 0.02 nM.

Consider `CCCc1cc(N2CCCCC2CCO)nc(Nc2ccc(N)c([N+](=O)[O-])c2)n1` (stereo not drawn) [Example 176, 2-{1-[2-(4-amino-3-nitrophenylamino)-6-propylpyrimidin-4-yl]piperidin-2-yl}ethanol], for which the EC50 was found to be 0.018 nM.

As for `CCCc1cc(N2CCC[C@@H](NCC3CC3)C2)nc(Nc2ccc(F)c(C#N)c2)n1` [Example 226, (R)-5-{4-[3-(cyclopropylmethylamino)piperidin-1-yl]-6-propylpyrimidin-2-ylamino}-2-fluorobenzonitrile], the EC50 stood at 0.071 nM.

`CCCCc1cc(N2CCC[C@@H](N)C2)nc(Nc2ccc(C)c(C(F)(F)F)c2)n1` [Example 343, (R)-4-(3-aminopiperidin-1-yl)-6-butyl-N-[4-methyl-3-(trifluoromethyl)phenyl]pyrimidin-2-amine]: the EC50 was 0.034 nM.

Turning to `CCCc1cc(N2CCC[C@@H](NCC)C2)nc(Nc2cc(N)cc(C(F)(F)F)c2)n1` [Example 290, (R)—N^1-[4-(3-ethylaminopiperidin-1-yl)-6-propylpyrimidin-2-yl]-5-(trifluoromethyl)benzene-1,3-diamine], the EC50 was 0.0041 nM.

For the molecule `CCCc1cc(N2CCCCC2)nc(Nc2ccc(F)c([N+](=O)[O-])c2)n1` [Example 40, N-(4-fluoro-3-nitrophenyl)-4-(piperidin-1-yl)-6-propylpyrimidin-2-amine], the EC50 stood at 0.26 nM.

As for `CCCc1cc(N2CCC[C@@H](NC)C2)nc(Nc2ccc(F)c(C(F)(F)F)c2)n1` [Example 287, (R)-(4-fluoro-3-trifluoromethylphenyl)-[4-(3-methylaminopiperidin-1-yl)-6-propylpyrimidin-2-yl]amine], the EC50 worked out at 0.026 nM.

For the molecule `CCCc1cc(N2CCC[C@@H](N(CC)CC)C2)nc(Nc2ccc(F)c(C#N)c2)n1` [Example 270, (R)-5-[4-(3-diethylaminopiperidin-1-yl)-6-propylpyrimidin-2-ylamino]-2-fluorobenzonitrile], the EC50 was determined as 0.148 nM.

Regarding `CCCCc1cc(N2CCC[C@@H](NC)C2)nc(Nc2ccc(C)c(C)c2)n1` [Example 330, (R)-4-butyl-N-(3,4-dimethylphenyl)-6-[3-(methylamino)piperidin-1-yl]pyrimidin-2-amine], the EC50 amounted to 0.086 nM.

Take `CCCc1cc(N2CCC[C@@H](NC)C2)nc(Nc2ccc(Cl)c(N)c2)n1` [Example 307, (R)-4-chloro-N^1-{4-[3-(methylamino)piperidin-1-yl]-6-propylpyrimidin-2-yl}benzene-1,3-diamine]: the EC50 came out at 0.004 nM.

For the molecule `CCCc1cc(N2CCCC(NC(C)=O)C2)nc(Nc2ccc(F)c(N)c2)n1` (stereo not drawn) [Example 276, N-{1-[2-(3-amino-4-fluorophenylamino)-6-propylpyrimidin-4-yl]piperidin-3-yl}acetamide], the EC50 was 0.018 nM.

Take `CCCc1cc(N2CCC[C@@H](NC(=O)CO)C2)nc(Nc2ccc(Cl)c(N)c2)n1` [Example 251, (R)—N-{1-[2-(3-amino-4-chlorophenylamino)-6-propylpyrimidin-4-yl]piperidin-3-yl}-2-hydroxyacetamide]: the EC50 was 0.016 nM.

In the case of `CCCCCN[C@@H]1CCCN(c2cc(CCC)nc(Nc3ccc(C)c(C#N)c3)n2)C1` [Example 208, (R)-2-methyl-5-{4-[3-(pentylamino)piperidin-1-yl]-6-propylpyrimidin-2-ylamino}benzonitrile], the EC50 worked out at 0.029 nM.

For the molecule `CCCCc1cc(N2CCC[C@@H](NC(C)=O)C2)nc(Nc2ccc(Cl)c(N)c2)n1` [Example 242, (R)—N-{1-[2-(3-amino-4-chlorophenylamino)-6-butylpyrimidin-4-yl]piperidin-3-yl}acetamide], the EC50 was 0.0091 nM.

As for `CCCCc1cc(N2CCC[C@@H](N)C2)nc(Nc2ccc(N)c([N+](=O)[O-])c2)n1` [Example 337, (R)—N^1-[4-(3-aminopiperidin-1-yl)-6-butylpyrimidin-2-yl]-3-nitrobenzene-1,4-diamine dihydrochloride], the EC50 turned out to be 0.006 nM.

For `CCCc1cc(N2CCCC3CCCCC32)nc(Nc2cccc(OC)c2)n1` (stereo not drawn) [Example 191, N-(3-methoxyphenyl)-4-(octahydroquinolin-1(2H)-yl)-6-propylpyrimidin-2-amine], the EC50 was determined as 0.34 nM.

As for `CCCc1cc(N2CCCCC2CCO)nc(Nc2ccc(C)c(N)c2)n1` (stereo not drawn) [Example 180, 2-{1-[2-(3-amino-4-methylphenylamino)-6-propylpyrimidin-4-yl]piperidin-2-yl}ethanol], the EC50 came out at 0.153 nM.

What is called EC50 is the midpoint of the concentration-response curve.
